From patent US7855200B2, “Method for treatment of gastric ulcers and ulcers induced by aspirin” (Council of Scientific and Industrial Research, priority 2006, dated 2010) come the findings set out here.

Assay type in all cases: in vivo, albino rats
In test [1] the test system is ethanol induced gastric ulcers. The test can be described thus: Ethanol induced ulcers. The following applies: rats, 25 mg/kg, ethanol challenge; for Acidity Total mEg / Gastric content / pH: 4 hours after pylorus ligation; for inhibition at 25 mg/kg: Rattus norvegicus. As to the method:
Stress induced gastric ulceration The commercially available drug ranitidine (sigma), Omeprazole (sigma) and sucralfate (Merck) were used as reference standard in experimental models. The Tween-80 (SD fine chemicals) was used as vehicle for the administration of the drug, which is used as control. The animals were divided into 22 groups of 6 animals each. Animals were deprived of food for 48 hours but had free access to water. Group 1 received the vehicle Tween 80 (1%, 1 ml) which served as the control. Group 2 received ranitidine at a dose of 50-mg/kg-body weight, which served as standard for comparison. Group 3 to received Omeprazole at a dose of 30-mg/kg body weight, which served as standard for comparison. Group 4 received sucralfate at a dose of 400-mg/kg body weight, which served as standard for comparison. Group 5 to 22 received at a dose of 25 mg/kg body weight. Lesions were induced 1 hour after ethanol challenge animals. The stomach was ligated at the pylorus under ether anesthesia. 4 hours after pylorus ligation, the animals were sacrificed and the contents drained and centrifuges at 5000 rpm for 10 minutes. Aliquots of supernatant were used for determination of total acid by titrating with 0.01N NaOH using topfers reagent and phenolphthalein indicators. […] The animals were divided into 9 groups of 6 animals each. Animals were deprived of food for 48 hours but had free access to water. Group 1 received the vehicle Tween 80 (1%, 1 ml) which served as the control. Group 2 received ranitidine at a dose of 50-mg/kg-body weight, which served as standard for comparison. Group 3 to received Omeprazole at a dose of 30-mg/kg body weight, which served as standard for comparison. Group 4 received sucralfate at a dose of 400-mg/kg body weight, which served as standard for comparison. […] Lesions were induced 1 hour after ethanol challenge animals. The stomach was ligated at the pylorus under ether anesthesia. 4 hours after pylorus ligation, the animals were sacrificed and the contents drained and centrifuges at 5000 rpm for 10 minutes. Aliquots of supernatant were used for determination of total acid by titrating with 0.01N NaOH using topfers reagent and phenolphthalein indicators.

For test [2], the system named is Pylorus ligated rats. Put plainly: Pylorus ligated ulcers. The following applies: 25 mg/kg, 4 hours after pylorus ligation. From the text: (§1) The compounds taken under study for antigastric ulcer screening by four different models were selected using experimental albino rats: • 1. Aspirin induced gastric ulceration • 2. Pylorus ligated gastric ulceration • 3. Ethanol induced gastric ulceration • 4. Stress induced gastric ulceration
(§2) The commercially available drug ranitidine (sigma), Omeprazole (sigma) and sucralfate (Merck) were used as reference standard in experimental models. The Tween-80 (SD fine chemicals) was used as vehicle for the administration of the drug, which is used as control.
The animals were divided into 19 groups of 6 animals each. Animals were deprived of food for 48 hours but had free access to water. Group 1 received the vehicle Tween 80 (1%, 1 ml) which served as the control. Group 2 received ranitidine at a dose of 50-mg/kg-body weight, which served as standard for comparison. […] After one hour of administration of drug the stomach was ligated at the pylorus under ether anesthesia. 4 hours after pylorus ligation, the animals were sacrificed and the contents drained and centrifuges at 5000 rpm for 10 minutes. Aliquots of supernatant were used for determination of total acid by titrating with 0.01N NaOH using topfers reagent and phenolphthalein indicators. 4.
The animals were divided into 7 groups of 6 animals each. Animals were deprived of food for 48 hours but had free access to water. Group 1 received the vehicle Tween 80 (1%, 1 ml) which served as the control. Group 2 received ranitidine at a dose of 50-mg/kg-body weight, which served as standard for comparison. Group 3 to 7 received at a dose of 50, 25, 15, 10 and 5 mg/kg body weight respectively. After one hour of administration of drug the stomach was ligated at the pylorus under ether anesthesia. 4 hours after pylorus ligation, the animals were sacrificed and the contents drained and centrifuges at 5000 rpm for 10 minutes. Aliquots of supernatant were used for determination of total acid by titrating with 0.01N NaOH using topfers reagent and phenolphthalein indicators.

For test [3], the system named is gastric ulceration in cold restraint rats. Put plainly: Cold restraint (stress) induced ulcers. Further details: Ulcer index Mean(SE): scale not given here. The following applies: rats, 25 mg/kg per orally, 4° C. for 2 hours; for inhibition at 25 mg/kg: Rattus norvegicus, po.
From the text: as §1, §2
(§3) The antiulcer activity of the compounds was studied. The animals were divided into 21 groups of 7 animals each. Group 1 received the vehicle Tween 80 (1%, 1 ml) which served as the control. Group 2 received ranitidine at a dose of 50-mg/kg body weight, which served as standard for comparison. Group 3 to 21 at a dose of 25 mg/kg body weight. Animals were deprived of food 48 hours before the experiment. The water was allowed for free access. Rats were administered per orally with compounds and the drug ranitidine. The water was removed 1 hour before restraint and exposed to a temperature of 4° C. for 2 hours. Two hours after stress, the animals were sacrificed. The stressed animals were opened along the greater curvature and the severity of gastric ulcer was assessed in terms of mean ulcer index. 2.
as §3, with “8” for “21”, “6” for “7”, “50, 25, 15, 10 and 5” for “25”, “weight respectively.” for “weight.”, “index.” for “index. 2.”

Test [4] relates to acetyl salicylic acid induced gastric lesions. The test can be described thus: Acetyl salicylic acid (aspirin) induced gastric ulcer. The following applies: rats, 25 mg/kg per orally daily for five days, aspirin 200 mg/kg; for inhibition at 25 mg/kg: Rattus norvegicus, po, 120 h. Also on record: Ulcer index Mean(SE): scale not given here. The procedure:
Stress induced gastric ulceration The commercially available drug ranitidine (sigma), Omeprazole (sigma) and sucralfate (Merck) were used as reference standard in experimental models. The Tween-80 (SD fine chemicals) was used as vehicle for the administration of the drug, which is used as control. Antiulcer activity of the compounds under taken was studied. The animals were divided into 20 groups of 6 animals each. Group 1 received the vehicle Tween 80 (1%, 1 ml) which served as the control. Group 2 received ranitidine at a dose of 50-mg/kg body weight, which served as standard for comparison. Group 3 to 20 at a dose of 25 mg/kg body weight. Rats were administered per orally with a daily dose of the compounds and the drug ranitidine for a period of five days and then fasted for 24 hours. The […] acetyl salicylic acid (aspirin) at a dose of 200 mg/kg body weight was administered as a suspension in tween-80 (1%), 30 min after the drug administration each day. All drugs were administered orally on the 6th day after the last administration of the drugs and the ulcer inducing agent aspirin, the rats were killed by cervical dislocation and their stomach were opened along the greater curvature and washed with luke warm saline and examined under a dissecting microscope. The ulcer index was calculated for each stomach. […] The antiulcer activity of the compounds was studied. The animals were divided into 19 groups of 6 animals each. Group 1 received the vehicle Tween 80 (1%, 1 ml) which served as the control. Group 2 received ranitidine at a dose of 50-mg/kg-body weight, which served as standard for comparison. […] Rats were administered per orally with a daily dose of the compounds and the drug ranitidine to respective groups for a period of five days and then fasted for 24 hours. The […] acetyl salicylic acid (aspirin) at a dose of 200 mg/kg body weight was administered as a suspension in tween-80 (1%), 30 min after the drug administration each day. All drugs were administered orally on ht […] day after the last administration of the drugs and the ulcer inducing agent aspirin, the rats were killed by cervical dislocation and their stomach were opened along the greater curvature and washed with luke warm saline and examined under a dissecting microscope.

On to `CN1CCN(CCCCOc2cc(O)c3c(=O)cc(-c4ccccc4)oc3c2)CC1` [NMC-3, 5-Hydroxy-7-[4-(4-methyl-piperzin-1-yl]-butoxy)-2-phenyl chromen-4-one], for which, in test [1], the Inhibition % was 36.25%, the “Ulcer index Mean(SE)” value is 42.50 (±3.09), the “Acidity Total mEg” value is recorded as 33.48 (±2.28) mEg and the Gastric content was 4.5 (±1.12). For the same compound, in test [1], the pH is given as 4.50 (±0.18). For the same compound, in test [2], the “Acidity Total mEg” value is 43.48 (±2.50) m Eg, the Gastric content is given as 1.92 (±0.20), the Inhibition % came to 33.49% and the “Ulcer index Mean(SE)” value is given as 33.33 (±2.47). Moreover, the pH in test [2] is recorded as 3.54 (±0.15). Also, in test [3], the Inhibition % came to 57.92% and the “Ulcer index Mean(SE)” value is 17.13. In addition, in test [4], the Inhibition % stood at 33.52% and the “Ulcer index Mean(SE)” value is 30.00.
In the case of `COc1c(OC2OC(C(=O)O)C(O)C(O)C2O)cc2oc(-c3ccccc3)cc(=O)c2c1O` (centres unmarked) [OA-5 acid, 3,4,5-Trihydroxy-6-(5-hydroxy-6-methoxy-4-oxo-2-phenyl-4H-chromen-7-yloxy)-tetrahydro-pyran-2-carboxylic acid], the inhibition (as a rule, the drop in the measured response relative to a control, in per cent) at 25 mg/kg in test [1] was found to be 45%; in test [2] (Rattus norvegicus), 23.5%; in test [3], 41.9%; in test [4], 48.3%. The “Ulcer index Mean(SE)” value in test [1] is listed as 36.66 (±3.33); in test [2] it was 38.33 (±1.66); in test [3] it was 23.33; in test [4], 23.33. Moreover, the “Acidity Total mEg” value in test [1] was 47.66 (±1.45) mEg; in test [2], 41.00 (±0.57) m Eg. Besides, the Gastric content in test [1] was 5.50 (±0.28); in test [2] it was 2.16 (±0.16). For the same compound, the pH in test [1] is given as 3.20 (±0.17); in test [2], 3.03 (±0.03).
Take `COc1c(OC2OC(CO)C(O)C(O)C2O)cc2oc(-c3ccccc3)cc(=O)c2c1O` (centres unmarked) [OA-G, 5-Hydroxy-6-methoxy-2-phenyl-7-(3,4,5-trihydroxy-6-hydroxyrnethyl-tetrahydro-pyran-2-yloxy)-chromen-4-one]: in test [1], the Inhibition % came to 20.00%, the “Ulcer index Mean(SE)” value is reported as 53.33 (±6.66), the “Acidity Total mEg” value is on record as 36.66 (±0.88) mEg and the Gastric content is given as 4.33 (±0.11). Besides, in test [1], the pH is on record as 4.31 (±0.11). Besides, in test [2], the “Acidity Total mEg” value is 41.66 (±1.66) m Eg, the Inhibition % is reported as 30.16%, the “Ulcer index Mean(SE)” value is recorded as 35.00 (±2.88) and the pH is given as 3.20 (±0.15). Moreover, in test [3], the Inhibition % was found to be 19.52% and the “Ulcer index Mean(SE)” value came to 32.33. In test [4], the Inhibition % stood at 32.05% and the “Ulcer index Mean(SE)” value turned out to be 30.66.
As to `CCCCCCCCCCCCCCCCC(=O)Oc1cc2oc(-c3ccccc3)cc(=O)c2c(O)c1OC` [ORC-16, Heptadecanoic acid 5-hydroxy-6-methoxy-4-oxo-2-phenyl-4H-chromen-7-yl ester], in test [1], the inhibition at 25 mg/kg was 22.8%, the “Ulcer index Mean(SE)” value is reported as 51.50 (±1.05), the “Acidity Total mEg” value is listed as 43.20 (±3.86) mEg and the Gastric content is 3.7 (±0.10). For the same compound, the pH in test [1] was 3.58 (±0.23). For the same compound, in test [2], the “Acidity Total mEg” value is listed as 42.20 (±2.20) m Eg, the Gastric content is recorded as 1.92 (±0.20), the “Ulcer index Mean(SE)” value is 43.33 (±2.10) and the pH was 3.66 (±0.20). In addition, in test [3], the inhibition at 25 mg/kg amounted to 14% and the “Ulcer index Mean(SE)” value came to 35.00. Moreover, in test [4], the inhibition at 25 mg/kg was 13.3% and the “Ulcer index Mean(SE)” value worked out at 39.13.
On to `COc1c(OC(=O)c2ccc(C)cc2)cc2oc(-c3ccccc3)cc(=O)c2c1O` [ORPM-1, 4-methyl-benzoic acid 5-hydroxy-6-methoxy-4-oxo-2-phenyl-4-H-chromen-7-yl ester], for which, in test [1], the Inhibition % was 28.75%, the “Ulcer index Mean(SE)” value is recorded as 47.50 (±1.11), the “Acidity Total mEg” value was 44.24 (±0.62) mEg and the Gastric content was 3.0 (±1.50). Besides, the pH in test [1] is recorded as 3.50 (±0.18). In test [2], the “Acidity Total mEg” value was 45.24 (±0.30) m Eg, the Gastric content is 2.20 (±0.22), the Inhibition % turned out to be 16.87% and the “Ulcer index Mean(SE)” value was 41.66 (±2.78). The pH in test [2] was 3.20 (±0.25). In test [3], the Inhibition % was determined as 24.23% and the “Ulcer index Mean(SE)” value was found to be 22.85. For the same compound, in test [4], the Inhibition % was determined as 16.91% and the “Ulcer index Mean(SE)” value came to 37.49.
